# Experimental data published in US20220257775A1 (GLYCOMIMETICS, INC., priority 2019, published 2022).
# Entries after “also recorded” stand apart in the source; their conditions may differ.
# Assays:
# [1] = test system: TNFα-treated nude mice infused with human sickle RBCs; assay: Sickle cell vaso-occlusion, intravital microscopy and adhesion in nude mouse model; type: in vivo, Nude (nu−/nu−) mice
# Method: In vivo treatment: Mice were divided into 3 groups. All mice were first injected I.P. with 500 ng TNFα to induce inflammation, activate the endothelium, and allow adhesion of murine leukocytes. After 2 hours, and once the endothelium is activated and murine leukocytes have already adhered, mice were infused with 200 μl of DIL (rhodamine)-labeled human sickle RBCs at 50% hematocrit (less than 10% murine blood volume assuming that blood volume for a 20 g weight mouse is 1.5 ml). We injected I.V. the three animal groups with the first dose of either Compound 45 at 20 μg/kg or 40 μg/kg, or saline (10 mL/kg) as vehicle immediately after infusion of human RBCs. The second dose was given 30 minutes later.
# Window chamber surgery: Surgery was performed before TNFα administration. General anesthesia was achieved by exposing nude mice to isoflurane. A double-sided titanium frame window chamber was surgically implanted into the dorsal skin fold under sterile conditions using a laminar flow hood. Surgery involved carefully removing the epidermal and dermal layers of one side of a dorsal skin fold, exposing the blood vessels of the subcutaneous tissue adjacent to the striated muscles of the opposing skin fold, and then securing the two sides of the chamber to the skin using stainless steel screws and sutures. A glass window was placed in the chamber to cover the exposed tissue and secured with a snap ring.
# Animal treatments, and fluorescence intravital microscopy: Anesthetized nude mice were first injected with 500 ng TNFα. After two hours, mice were infused with 200 μl DIL (rhodamine)-labeled human sickle RBCs at 50% hematocrit DIL through the dorsal tail vein.
# Immediately after human RBC injection, nude mice were then injected I.V. with the first dose of either Compound 45 at 20 μg/kg (n=4) or 40 μg/kg (n=3), or saline (10 mL/kg) as vehicle (n=5). Videos were recorded for 30 minutes at different locations within the dorsal skin-fold window chamber to accurately determine the effects of Compound 45 on human sickle cell adhesion to the vascular endothelium and adherent murine leukocytes, and vaso-occlusion in the nude mice. Thirty minutes later, the second dose of either Compound 45 at 20 μg/kg (n=4) or 40 μg/kg (n=3), or vehicle (n=5) was injected I.V., and intravital microscopy measurements of blood cell flow dynamics in post-capillary venules and arterioles were resumed for another 30 minutes on anesthetized nude mice. Videos were again recorded at different locations within the dorsal skin-fold window chamber to accurately determine the effects of the second dose of Compound 45 on blood cell adhesion to the vascular endothelium, and vaso-occlusion. Videos were produced using 10× and 20× magnifications.
# Cell adhesion was quantified on still images by measuring the fluorescence intensity [fluorescence unit (FU)] of adherent fluorescence-labeled human sickle cells using ImageJ software downloaded from the NIH website. Blood flow was also determined by counting the number of vessels with normal blood flow, slow blood flow, and no blood flow by frame-by-frame analysis of video replay. The values were averaged among groups of animals (n=5 for vehicle, n=4 for 40 μg/kg total Compound 45, and n=3 for 80 μg/kg total Compound 45) for non-blinded statistical analysis.
# (§1) Method of Analysis: Human sickle RBC adhesion is presented as FU, blood flow as % normal blood flow, % slow blood flow and % no blood flow (or occluded vessels), and circulating human sickle RBCs as number of circulating sickle RBCs.
# [2] = test system: TNFα-treated nude mice infused with human sickle RBCs; assay: Flow cytometry analysis of circulating human sickle RBCs in nude mice; type: in vivo, Nude (nu−/nu−) mice
# Method: Flow cytometry analysis of circulating human sickle RBCs: Following intravital microscopy, blood samples were collected from nude mice treated with vehicle (n=3), 40 μg/kg total Compound 45 (n=3), and 80 μg/kg total Compound 45 (n=2), through cardiac puncture into EDTA tubes to determine the number of circulating human sickle RBCs by flow cytometry.
# as §1
# [3] = test system: TNFα-treated HbSS-Townes mice; assay: Sickle cell vaso-occlusion, intravital microscopy and adhesion in Townes mouse model; type: in vivo
# Method: In vivo treatment: Townes mice were divided into 3 groups. All mice were first injected I.V. with PE-anti-mouse TER-119 antibody (10 μg/g BW) to label RBCs. Thirty minutes later, animals are injected with 500 ng TNFα I.P. to induce vaso-occlusion. After 90 minutes, and after onset of vaso-occlusion, sickle mice were treated I.V. with the first dose of either Compound 45 at 20 μg/kg or 40 μg/kg, or saline (10 mL/kg) as vehicle. The second dose was given 30 minutes later.
# Window chamber surgery: For Townes mice experiments, surgery is carried out under sterile conditions with aseptic technique. Since these mice do have hair, it is necessary to shave and use hair removal cream on the back of the anesthetized mouse prior to cleaning the back of the animals, and performing surgery. Experimental studies are performed immediately after surgery, because in our experience, window chambers are not usable a few days after surgery. The skin is very dry, and blood cells cannot be visualized under the microscopy. In addition, sickle mice have been reported to have a mild inflammatory response to the dorsal skin-fold window chamber implantation, evidenced by elevated levels of serum amyloid P component (SAP) 3 days after surgery.
# Intravital microscopy: Anesthetized animals with window chambers were placed on the stage of an Axoplan microscope (Carl Zeiss, Thornwood, N.Y.) and temperature maintained at 37° C. using a thermostatically controlled heating pad. […] Microcirculatory events and cell adhesion were simultaneously recorded using a computer connected to a digital video camera C2400 (Hamamatsu Photonics K.K., Japan). Visible venules were examined for each set of conditions. Arterioles were distinguished from venules based on: 1) observation of divergent flow as opposed to convergent flow; 2) birefringent appearance of vessel walls using transillumination, which is characteristic of arteriolar vascular smooth muscle; and 3) relatively straight vessel trajectory without evidence of tortuosity.
# Data Analysis and Statistics were conducted as described above for the nude mouse model.
# [4] = molecular target: T1, recombinant human E-selectin/CD63E Fc Chimera (Homo sapiens, UniProt P16581); assay: E-Selectin Activity - Analysis by SPR; type: binding; settings: Biacore X100, E-selectin captured on anti-human IgG (Fc) chip
# T1 construct: Fc (human IgG Fc fusion partner); purchased R & D systems
# T1 sequence (P16581 with tags, fused parts or gaps limits assumed): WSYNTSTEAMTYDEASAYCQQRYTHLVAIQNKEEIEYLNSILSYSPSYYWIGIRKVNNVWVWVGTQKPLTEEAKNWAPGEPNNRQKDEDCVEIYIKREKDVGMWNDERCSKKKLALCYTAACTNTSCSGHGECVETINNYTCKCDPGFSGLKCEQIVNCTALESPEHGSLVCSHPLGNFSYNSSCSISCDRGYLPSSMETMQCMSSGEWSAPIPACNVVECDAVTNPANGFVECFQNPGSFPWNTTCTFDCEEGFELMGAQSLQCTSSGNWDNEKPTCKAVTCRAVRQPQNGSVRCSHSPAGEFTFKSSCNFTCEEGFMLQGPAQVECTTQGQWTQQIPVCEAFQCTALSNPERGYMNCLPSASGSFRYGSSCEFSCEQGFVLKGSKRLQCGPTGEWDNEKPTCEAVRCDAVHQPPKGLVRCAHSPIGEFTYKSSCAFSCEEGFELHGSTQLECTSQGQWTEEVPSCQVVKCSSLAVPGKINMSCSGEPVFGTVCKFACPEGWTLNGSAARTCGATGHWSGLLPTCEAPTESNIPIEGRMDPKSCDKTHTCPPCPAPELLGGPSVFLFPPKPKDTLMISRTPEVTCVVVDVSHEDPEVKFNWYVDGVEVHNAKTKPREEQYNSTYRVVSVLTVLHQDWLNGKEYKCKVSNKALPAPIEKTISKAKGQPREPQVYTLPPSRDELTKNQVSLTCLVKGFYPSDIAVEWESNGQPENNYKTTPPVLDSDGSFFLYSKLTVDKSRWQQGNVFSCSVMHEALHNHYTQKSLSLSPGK
# Method: Surface Plasmon Resonance (SPR) measurements were performed on a Biacore X100 instrument (GE Healthcare). A CM5 sensor chip (GE Healthcare) was used for the interaction between E-selectin and GMI compound. Anti-human IgG (Fc) antibody (GE Healthcare) was immobilized onto the chip by amine coupling according to the manufacturer's instructions. In brief, after a 7-min injection (flow rate of 5 μl/min) of 1:1 mixture of N-ethyl-N′-(3-dimethylaminopropyl) carbodiimide hydrochloride and N-hydroxysuccinimide, anti-human IgG (Fc) antibody (25 μg/ml in 10 mM sodium acetate buffer, pH 5.0) was injected using a 6-min injection at 5 μl/min. Remaining activated groups were blocked by injecting 1 M ethanolamine/HCl, pH 8.5. The recombinant human E-selectin/CD63E Fc Chimera (50 μg/ml) (R & D systems) was injected into the experimental cell until 6000-7000 RU was captured onto the antibody surface. No recombinant human E-selectin/CD63E was injected into the control cell. Increasing concentrations of GMI compound samples were injected at 30 μl/min into both flow cells and all sensorgrams were recorded against the control. Regeneration of the anti-human IgG (Fc) surface was achieved by injecting 3M magnesium chloride, followed by 50 mM sodium hydroxide. Data were analyzed using Biacore X100 evaluation/BIA evaluation 4.1.1 software (GE Healthcare) and Graphad prism 6 software.
# [5] = after second dose of 20 μg/kg I.V.
# [6] = after the first dose of 40 μg/kg I.V.
# [7] = after two doses of 40 μg/kg I.V.
SMILES,"percentage of the total occluded vessel segments [1, 5]","total venules with slow blood flow [1, 5]","human SSRBC adhesion compared to vehicle ([1]; after second dose of 20 μg/kg I.V. (40 μg/kg total), 30 min interval)","percentage of obstructed total vessels [1, 6]","vessels with slow blood flow [1, 6]","percentage of obstructed total vessels [1, 7]","vessels with slow blood flow [1, 7]",blood flow in inflamed vessels ([1]; dose not given),human SSRBC adhesion after the inflammatory trigger of vaso-occlusion ([1]; dose not given),human SSRBC adhesion compared to vehicle ([1]; one dose of 20 μg/kg I.V.),human SSRBC adhesion ([1]; one dose of 40 μg/kg I.V.),"human SSRBC adhesion ([1]; two doses of 40 μg/kg I.V. (80 μg/kg total), 30 min interval)",number of circulating human SSRBCs compared to vehicle ([2]; two doses of 20 μg/kg I.V. at 30 min interval),number of circulating human SSRBCs compared to vehicle ([2]; two doses of 40 μg/kg I.V. at 30 min interval),SSRBC adhesion after the inflammatory trigger of vaso-occlusion ([3]; dose not given),blood flow in inflamed vessels ([3]; dose not given),adhesion of the sickle cells ([3]; two 20 μg/kg doses I.V.),reduction of the percentage of the total occluded vessel segments ([3]; two 20 μg/kg doses or two 40 μg/kg doses I.V.),adhesion of the sickle cells ([3]; two 40 μg/kg doses I.V. (80 μg/kg total)),Kd [4]
CC[C@H]1C[C@@H](C(=O)NCCNC(=O)NCCNC(=O)[C@@H]2C[C@H](CC)[C@@H](O[C@@H]3O[C@@H](C)[C@@H](O)[C@@H](O)[C@@H]3O)[C@H](O[C@@H]3O[C@H](CO)[C@H](O)[C@H](O[C@@H](CC4CCCCC4)C(=O)N4CCC4)[C@H]3NC(C)=O)C2)C[C@@H](O[C@@H]2O[C@H](CO)[C@H](O)[C@H](O[C@@H](CC3CCCCC3)C(=O)N3CCC3)[C@H]2NC(C)=O)[C@@H]1O[C@@H]1O[C@@H](C)[C@@H](O)[C@@H](O)[C@@H]1O [Compound 45],2%,16%,significantly diminished,2%,12%,4%,8%,improves blood flow,reduces human SSRBC adhesion,failed to reduce SSRBC adhesion,marked anti-SSRBC adhesive activity,marked anti-SSRBC adhesive activity; also recorded: effective in reducing cell adhesion in venules and vaso-occlusion and restoring blood flow,increased significantly,increased significantly,reduces SSRBC adhesion,improves blood flow,significantly diminished,80-90%,significantly diminished; also recorded: effective in reducing sickle RBCs adhesion in venules and vaso-occlusion and restoring blood flow,2.1 nM
CC[C@H]1C[C@@H](C(=O)NCCNC(=O)CCOCCOCCOCCOCCOCCOCCOCCOCCOCCOCCOCCOCCOCCC(=O)NCCNC(=O)[C@@H]2C[C@H](CC)[C@@H](O[C@@H]3O[C@@H](C)[C@@H](O)[C@@H](O)[C@@H]3O)[C@H](O[C@@H]3O[C@H](CO)[C@H](O)[C@H](O[C@@H](CC4CCCCC4)C(=O)O)[C@H]3NC(C)=O)C2)C[C@@H](O[C@@H]2O[C@H](CO)[C@H](O)[C@H](O[C@@H](CC3CCCCC3)C(=O)O)[C@H]2NC(C)=O)[C@@H]1O[C@@H]1O[C@@H](C)[C@@H](O)[C@@H](O)[C@@H]1O [Compound 14],,,,,,,,,,,,,,,,,,,,6.6 nM
